Consider one molecule from patent US20140213576A1, “NOVEL COMPOUND USEFUL FOR THE TREATMENT OF DEGENERATIVE AND INFLAMMATORY DISEASES” (GALAPAGOS NV, priority 2013, published 2014).

SMILES strings stand for the structures.

For one assay, the system named is HeLa cells. Kind of assay: JAK-STAT signalling assay (OSM-triggered pSTAT1(2)-luciferase reporter). Type of assay: cell-based. The note with it: human OSM 33 ng/mL, STAT1 luciferase reporter, individual determinations. As for the experimental part: HeLa cells were maintained in Dulbecco's Modified Eagle's Medium (DMEM) containing 10% heat inactivated fetal calf serum, 100 U/mL penicillin and 100 μg/mL streptomycin. HeLa cells were used at 70% confluence for transfection. 20,000 cells in 87 μL cell culture medium were transiently transfected with 40 ng pSTAT1(2)-luciferase reporter (Panomics), 8 ng of LacZ reporter as internal control reporter and 52 ng of pBSK using 0.32 μL Jet-PEI (Polyplus) as transfection reagent per well in 96-well plate format. After overnight incubation at 37° C., 5% CO2, transfection medium was removed. 81 μL of DMEM+1.5% heat inactivated fetal calf serum was added. […]
40 μL of cell lysate was used to read β-galactosidase activity by adding 180 μL β-Gal solution (30 μL ONPG 4 mg/mL+150 μL β-Galactosidase buffer (0.06 M Na2HPO4, 0.04 M NaH2PO4, 1 mM MgCl2)) for 20 min. The reaction was stopped by addition of 50 μL Na2CO3 1 M. Absorbance was read at 405 nm.
Luciferase activity was measured using 40 μL cell lysate plus 40 μL of Steadylite® as described by the manufacturer (Perkin Elmer), on the Envision (Perkin Elmer). […]
Percentage inhibition=((fluorescence determined in the presence of vehicle−fluorescence determined for sample with test compound present) divided by (fluorescence determined in the presence of vehicle−fluorescence determined for sample without trigger))[…]. […]

The next assay deals with BA/F3 (ATCC CRL-12015). In words: BA/F3 viability assay. Type of assay: cell-based, murine. The conditions noted are these: IL3-dependent viability, ATP-lite, individual determinations. An excerpt:
The protocol describes the methods to analyse the activity of compounds on the ability to sustain the IL3-dependent viability of BA/F3 (ATCC CRL-12015; Collins et al, 1992).

Assay [1] relates to Collagen Induced Arthritis (CIA). Kind of assay: Rat CIA model. Type of assay: in vivo. The note with it: p.o., therapeutic dosing day 16 to day 30. Here is the method:
Completed Freund's adjuvant (CFA) and incomplete Freund's adjuvant (IFA) were purchased from Difco. Bovine collagen type II (CII), lipopolysaccharide (LPS), and Enbrel was obtained from Chondrex (Isle d'Abeau, France); Sigma (P4252, L'Isle d'Abeau, France), […] (25 mg injectable syringe, France) Acros Organics (Palo Alto, Calif.), respectively. All other reagents used were of reagent grade and all solvents were of analytical grade. Dark Agouti rats (male, 7-8 weeks old) were obtained from Harlan Laboratories (Maison-Alfort, France). Rats were kept on a 12 h light/dark cycle (0700-1900). Temperature was maintained at 22° C., and food and water were provided ad libitum. […] A compound of interest was typically tested at 5 doses, e.g. 1, 2, 3, 5, and 10 mg/kg, p.o. Arthritis is scored according to the method of Khachigian 2006, Lin et al 2007 and Nishida et al. 2004). […] To permit the meta-analysis of multiple studies the clinical score values were normalised as follows: AUC of clinical score (AUC score): The area under the curve (AUC) from day 1 to day 14 was calculated for each individual rat. The AUC of each animal was divided by the average AUC obtained for the vehicle in the study from which the data on that animal was obtained and multiplied by 100 (i.e. the AUC was expressed as a percentage of the average vehicle AUC per study). […]

In the case of `CCc1cc(C2CN(S(C)(=O)=O)C2)ncc1N(C)c1cc2c(cn1)ncn2C` [Compound 1, [4-Ethyl-6-(1-methanesulfonyl-azetidin-3-yl)-pyridin-3-yl]-methyl-(1-methyl-1H-imidazo[4,5-d]pyridin-6-yl)-amine], the IC50 with HeLa cells (Homo sapiens, HeLa) was 1.65 µM; in the assay with HeLa cells (listed as compound of the invention) it was 1.66 µM; in the assay with BA/F3 (ATCC CRL-12015) (48 h, listed as compound of the invention) it was 8.02 µM; in the assay with BA/F3 (ATCC CRL-12015) (Mus musculus, BaF3, 48 h), greater than 11.1 µM. Besides, the “dose from which statistically significant efficacy was displayed” value in assay [1] is recorded as no less than 3 mg/kg.

As a reminder, the IC50 is the point on the concentration scale where inhibition reaches its midpoint. Lower therefore signals inhibition by little substance.
